Test results reported in publication PMC11459959, “Discovery of new acetamide derivatives of 5-indole-1,3,4-oxadiazol-2-thiol as inhibitors of HIV-1 Tat-mediated viral transcription” (Antimicrobial Agents and Chemotherapy, 2024).

Experiments:
Type in all cases: cell-based
[1] = tested on: HIV-1NL4-3; assay: HIV-1 replication in A3.01 cells (p24 […]); conditions: for EC50: Human immunodeficiency virus 1, 72 h, HIV-1NL4-3 MOI 0.1, 3 days; for inhibition of viral replication (in words): fivefold serial dilutions, 3 days
Method: The p24 level from the cell supernatant was subsequently determined using a p24 […] kit (PerkinElmer). In parallel, the cell viability was determined without viral infection because of the viral cytopathic effect. […] In parallel, cell viability was determined. The data (A and B) are presented as the mean ± SD (n = 3). (C) PBMCs (4 × 10^5) infected with HIV-AD8 at an MOI of 0.1 were treated with 1.5 µM of the compounds or ARVs for 3 days. The levels of p24 and cell viability were subsequently determined. (D) J1.1 cells were cultured with the compounds ([…]) under 50 ng/mL phorbol myristate acetate (PMA) treatment for 2 days. The level of p24 was subsequently determined. (E) J-Lat 6.3 cells were treated with the compounds (1.5 µM) under 1 µg/mL of PMA for 2 days. The GFP-positive cell population was analyzed using flow cytometry. The data are represented as a value relative to the DMSO-treated vehicle (D) and a percent of the GFP^+ cell population (E) as mean ± SD (n = 3).
The inhibitory effects of the compounds on viral replication were determined with some minor modifications, as previously described ([12], [62]). […] PBMCs (4 × 10^5) pre-activated with PHA-M for 3 days were washed with fresh media to remove excess PHA-M and subsequently infected with HIV-1NL4-3 or HIV-1AD8 or PIs-resistant HIV-1 strains as A3.01 infection. After infection, the infectious media were replaced with fresh media supplemented with international 10 units (IU)/mL of IL-2 and the indicated compounds. At 72 h after infection, the inhibitory effect of the compounds on viral replication was determined by measuring the p24 amount, an HIV capsid protein, using an HIV-1 p24 […] kit (PerkinElmer, Waltham, MA, USA). Cell viability was determined as described above. The inhibitory effects on provirus reversing in J1.1 and J-Lat 6.3 cells were determined as previously described ([12], [41], [63]) with some minor modifications. Briefly, 5 × 10^4 persistently HIV-1-infected J1.1 or J-Lat 6.3 cells were cultured in either the presence or absence of the compounds at a final concentration of 1.5 µM and treated with PMA (50 ng/mL for J1.1 cells, 1 µg/mL for J-Lat 6.3 cells). Two days after treatment, the levels of viral production were determined using p24 […] for J1.1 cells and flow cytometry analysis for GFP-expressing J-Lat 6.3 cells.

[2] = tested on: INSTI-resistant HIV-1 strain 11847; assay: microbe, parasite or virus in culture; conditions: Human immunodeficiency virus 1, TZM-bl
Method: (§1) Fig 7 (A–C) TZM-bl cells (1 × 10^4 cells/well) cultured in a 96-well plate were treated with fivefold serial dilutions of the indicated compound or ARV for 1 h before infection with the HIV-1NL4-3 or ARV-resistant HIV-1 strains at an MOI of 1, respectively. At 48 h after infection, the EC50 values were determined using an F-Luc activity. The symbols represent the fold-change values of EC50 against each mutant virus relative to the wild-type (WT) virus. (D) PBMCs (5 × 10^4 cells/well) were infected with the HIV-1NL4-3 and PIs-resistant HIV-1 strain at an MOI of 0.1, respectively. Subsequently, the PBMCs were treated with 10-fold serial dilutions of the indicated compounds or PI. At 3 days after infection, the EC50 values on the viral replication were determined using a p24 […] assay kit. (E) The inhibitory kinetics for the WT and ARV-resistant viruses. TZM-bl cells infected with WT or ARV-resistant viruses were cultured upon fivefold serial dilutions of each compound for 2 days and the infectivity was determined using an F-Luc activity.
(§2) The Tzm-bl-derived dual Tat reporter; TZM-bl/Tat/Rluc (bl-DTR) cells were established from TZM-bl cells using two Dox-inducible lentiviral expression cassettes cloned with Flag-tagged Tat86 and the R-Luc gene, as described in our previous study ([11]). TZM-bl, A3.01, J1.1, and J-Lat 6.3 cells as well as the HIV-1 molecular clone pNL4-3, pNL(AD8), ARV-resistant HIV-1 strains, and HIV-1NL43-IRES-eGFP (pBR43IeG-nef^+, gifted by Dr. Frank Kirchhoff) ([52]) were provided by the National Institute of Health HIV Reagent Program (NIH, Bethesda, MD, USA). HeLa (CCL-2) and 293T (CRL-3216) cell lines were purchased from the American Type Culture Collection (ATCC, Manassas, VA, USA). The bl-DTR, TZM-bl, HeLa, and 293T cells were cultured in Dulbecco’s modified Eagle’s medium supplemented with 1% penicillin–streptomycin and 10% (vol/vol) heat-inactivated fetal bovine serum (all from Gibco-BRL, Gaithersburg, MD, USA), and 1 µg/mL of puromycin and 200 µg/mL of zeocin were additionally supplemented for the bl-DTR cells. PBMCs were purchased from AllCells (Alameda, CA, USA) and cultured as previously described ([12]). The information on ARV-resistant HIV-1 strains was described in previous reports as follows: NNRTI-resistant 12241 and 12243 ([53]); NRTI-resistant 7396, 7406, and 7407 ([54]); INSTI-resistant 11847 and 11849 ([55], [56]); and PI-resistant 11800 and 11803 ([57]). Each molecular HIV-1 clone was transfected to 293T cells, as previously described ([58]), to obtain infectious HIV-1 particles. Virus-containing cell culture supernatants were collected 3 days after transfection, and filtered through a 0.45-µm membrane filter (Millipore Sigma, Burlington, MA, USA) to remove cell debris. The viral titration was performed as described previously ([59]) with some minor modifications. In brief, 1 × 10^4 TZM-bl cells seeded in 96-well plates were infected with 200 µL of virus-containing medium diluted serially twofold. The incubation was for 2 days and the experiment was performed in triplicate; the infection time minimized the virus spread ([59]). The titration of the infectious viral particles was performed with a ß-Gal staining assay using the ßeta-Galactosidase Staining Kit (Mirus Bio, Madison, WI, USA) following the manufacturer’s protocols. In brief, the infected cells were washed with phosphate-buffered saline (PBS) and fixed using a Cell Fixative Working solution. The cells were washed with PBS and stained using the Cell Staining Working Solution containing X-gal. The infected blue-colored cells were counted under a microscope (100× magnification). The infectious virus titer was determined as a mean value of blue-colored cells count × dilution factor and used for determining the multiplicity of infection (MOI) in each infection experiment.

[3] = tested on: INSTI-resistant HIV-1 strain 11849; assay: microbe, parasite or virus in culture; conditions: Human immunodeficiency virus 1, TZM-bl
Method: as §1, §2

[4] = tested on: NNRTI-resistant HIV-1 strain 12241; assay: microbe, parasite or virus in culture; conditions: Human immunodeficiency virus 1, TZM-bl
Method: as §1, §2

[5] = tested on: NNRTI-resistant HIV-1 strain 12243; assay: microbe, parasite or virus in culture; conditions: Human immunodeficiency virus 1, TZM-bl
Method: as §1, §2

SMILES	SI (CC50/EC50) [1]	EC50 ([1]; p24) [nM]	EC50 [2] [nM]	EC50 [3] [nM]	EC50 [4] [nM]	EC50 [5] [nM]	EC50 ([1]; p24, mean ± SD) [nM]	inhibition of viral replication (in words) [1]
CC(C)[C@]12O[C@H]1[C@@H]1O[C@]13[C@]1(O[C@H]1C[C@H]1C4=C(CC[C@@]13C)C(=O)OC4)[C@@H]2O [triptolide, reference compound]	54.05	4.07 ± 2.3						
C[C@@H]1CCO[C@H]2Cn3cc(C(=O)NCc4ccc(F)cc4F)c(=O)c(O)c3C(=O)N12 [DTG, dolutegravir, reference compound]	>7,670	< 1	10 ± 10	10				
Cc1[nH]c2ccc(-c3nnc(SCC(=O)N4CCCCC4)o3)cc2c1C [Compound 9, 2-((5-(2,3-Dimethyl-1H-indol-5-yl)-1,3,4-oxadiazol-2-yl)thio)-1-(piperidin-1-yl)ethan-1-one]	224.40		70	80 ± 20	70	60	250 ± 60	inhibited the viral replication
O=C1Nc2ccc(Cl)cc2[C@@](C#CC2CC2)(C(F)(F)F)O1 [EFV, efavirenz, reference compound]	>22,740	< 1			4360 ± 80	15500 ± 3390		
Cc1[nH]c2ccc(-c3nnc(SCC(=O)N4CCCC4)o3)cc2c1C [Compound 13, 2-((5-(2,3-Dimethyl-1H-indol-5-yl)-1,3,4-oxadiazol-2-yl)thio)-1-(pyrrolidin-1-yl)ethan-1-one]	93.29		140 ± 10	230 ± 20	200	180 ± 10	510 ± 210	inhibited the viral replication
